Results reported in ChEMBL document CHEMBL1201862, “PubChem BioAssay data set” (2004).
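Step 1: Grow cells in 96-well plates. Step 2: Expose to compound for 48 hours at 5 concentrations. Step 3: Interpolate endpoints linearly; if unreached, use highest concentration. Abbreviation: GI50, concentration required for 50% inhibition of growth.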 Calls of active or inactive are those of the source. No stated cut-off is given here; in the data, active = GI50 up to about 1.1 µM and inactive = higher.

Legend:
Experiment in all cases: NCI tumour cell line growth inhibition, 48 h
MDA-N = test system: MDA-N
BT-549 = test system: BT-549
LXFL 529 = test system: LXFL 529
DMS-273 = test system: DMS-273
KM-20L2 = test system: KM-20L2
HOP-18 = test system: HOP-18
M19-MEL = test system: M19-MEL
RXF 631 = test system: RXF 631
XF498 = test system: XF498

COc1ccc(C2C3=C(COC3=O)Oc3cc4c(cc32)OCO4)cc1OC (stereo unspecified) was tested, and the GI50 (MDA-N) was 0.135 µM (active).
With CCOP1(=O)C=C(Sc2ccc([N+](=O)[O-])cc2[N+](=O)[O-])C(C)(C)O1 (stereo unspecified) the GI50 (BT-549) was 17.5 µM (inactive) and the GI50 (MDA-N) was 5.07 µM (inactive).
For COC(=O)c1sc2nc(Nc3ccccc3)/c(=N\c3ccccc3)sc2c1C, the GI50 (MDA-N) was 66.8 µM (inactive).
COc1ccccc1NC(=O)O/N=C(/Cl)C(C)C was tested, and the GI50 (BT-549) was 3.48 µM (inactive) and the GI50 (MDA-N) was 13.6 µM (inactive).
With COc1cccc2c(Nc3ccc(S(=O)(=O)NC(C)=O)cc3)c3ccc([N+](=O)[O-])cc3nc12 the GI50 (BT-549) was 26.3 µM (inactive) and the GI50 (MDA-N) was 36.6 µM (inactive).
N#Cc1c(-c2ccc(Cl)cc2)cc(-c2ccc(Nc3ccnc4cc(Cl)ccc34)cc2)[nH]c1=O was tested, and the GI50 (BT-549) was 19.6 µM (inactive) and the GI50 (MDA-N) was > 100 µM (inactive).
With COc1ccc2[nH]c3c(C)c4ccnc(NCCCN(C)CCCN)c4c(C)c3c2c1 the GI50 (BT-549) was 1.76 µM (inactive) and the GI50 (MDA-N) was 0.214 µM (active).
C=C(Cl)C(Cl)(CBr)CCC(Cl)C(C)(C)Cl (stereo unspecified) was tested, and the GI50 (BT-549) was 5.47 µM (inactive) and the GI50 (MDA-N) was 1.81 µM (inactive).
CC(C)=CCc1c(O)c(CC=C(C)C)c2oc3c(c(=O)c2c1O)C(C=C(C)C)Oc1cc(O)ccc1-3 (stereo unspecified) was tested, and the GI50 (BT-549) was 12.2 µM (inactive) and the GI50 (MDA-N) was 3.32 µM (inactive).
For Oc1ccc(/N=N/c2ccc(Cl)cc2)cc1, the GI50 (BT-549) was 15.1 µM (inactive) and the GI50 (MDA-N) was 16.9 µM (inactive).
O=C(O)CCSC(=O)Nc1ccccc1 was tested, and the GI50 (LXFL 529) was 61.9 µM (inactive), the GI50 (DMS-273) was > 100 µM (inactive) and the GI50 (KM-20L2) was > 100 µM (inactive).
In the case of COc1cccc(NC(=O)CC(=O)N2N=C(N(CCC#N)c3ccc(Cl)cc3)CC2c2ccccc2)c1 (stereo unspecified), the GI50 (HOP-18) was > 100 µM (inactive), the GI50 (LXFL 529) was > 100 µM (inactive) and the GI50 (DMS-273) was > 100 µM (inactive). For the same compound, the GI50 (KM-20L2) was > 100 µM (inactive) and the GI50 (M19-MEL) was > 100 µM (inactive).
With Oc1cc(Br)cc2cc(Br)cnc12 the GI50 (BT-549) was 4.58 µM (inactive) and the GI50 (MDA-N) was 5.37 µM (inactive).
With CCc1cccc(CC)c1NC(=O)C(=O)Cc1nc2ccccc2o1 the GI50 (HOP-18) was > 100 µM (inactive), the GI50 (LXFL 529) was > 100 µM (inactive) and the GI50 (KM-20L2) was > 100 µM (inactive). For the same compound, the GI50 (M19-MEL) was > 100 µM (inactive).
For CC(=O)/N=C1/N(/C=C2\C(=O)Oc3ccccc3C2=O)C(=O)/C(=C/c2ccc(Cl)cc2Cl)N1C, the GI50 (BT-549) was 11.5 µM (inactive).
CCOP(=O)(OCC)/C(F)=C/c1ccc(F)cc1 was tested, and the GI50 (BT-549) was > 100 µM (inactive) and the GI50 (MDA-N) was > 100 µM (inactive).
With O=C(N/N=C\c1ccc(Cl)cc1)Nc1ccc2ccccc2c1 the GI50 (BT-549) was 56.6 µM (inactive) and the GI50 (MDA-N) was 86.7 µM (inactive).
In the case of CCOC(=O)C(CC#Cc1ccc(C#CCC(NC(C)=O)C(=O)OCC)cc1)NC(C)=O (stereo unspecified), the GI50 (MDA-N) was > 100 µM (inactive).
With Cc1ccc(-c2nc3ccccc3c(=O)n2NCC2(O)OCC(O)C(O)C2O)cc1 (stereo unspecified) the GI50 (LXFL 529) was > 100 µM (inactive), the GI50 (DMS-273) was > 100 µM (inactive) and the GI50 (KM-20L2) was > 100 µM (inactive). The GI50 (M19-MEL) was > 100 µM (inactive).
CC(=O)O[C@H]1[C@@H](OC2CCCC2(c2ccccc2)c2ccccc2)O[N+]([O-])=C[C@@]12COCc1cc3c(cc12)OCO3 (stereo partly specified) was tested, and the GI50 (BT-549) was 23 µM (inactive).
For O=C(c1ccccc1)c1ccc2nc3n(c2c1)C(c1c(F)cccc1F)SC3 (stereo unspecified), the GI50 (BT-549) was 17.3 µM (inactive) and the GI50 (MDA-N) was 1.34 µM (inactive).
Cc1cc2c(=O)cc(-c3ccc(C(=O)O)cc3)oc2c(C(N)=O)c1C was tested, and the GI50 (LXFL 529) was > 100 µM (inactive), the GI50 (DMS-273) was > 100 µM (inactive) and the GI50 (RXF 631) was > 100 µM (inactive). For the same compound, the GI50 (KM-20L2) was > 100 µM (inactive) and the GI50 (M19-MEL) was > 100 µM (inactive).
O=C(c1cc(O)ccc1O)c1ccccc1C(Cl)(Cl)Cl was tested, and the GI50 (HOP-18) was > 100 µM (inactive), the GI50 (LXFL 529) was 61.4 µM (inactive) and the GI50 (DMS-273) was > 100 µM (inactive). The GI50 (KM-20L2) was > 100 µM (inactive), the GI50 (XF498) was 34.9 µM (inactive) and the GI50 (M19-MEL) was 90.8 µM (inactive).
CCCCCC/C=C\CCCCCCCCC(=O)c1cccc(OC)c1OC was tested, and the GI50 (BT-549) was > 100 µM (inactive) and the GI50 (MDA-N) was 91.8 µM (inactive).
With CC1CC(=O)Nc2ccc(Cl)cc2N1C(=O)CN1CCC(CCCCN(C)C)CC1 (stereo unspecified) the GI50 (HOP-18) was > 100 µM (inactive), the GI50 (LXFL 529) was > 100 µM (inactive) and the GI50 (DMS-273) was > 100 µM (inactive). For the same compound, the GI50 (RXF 631) was > 100 µM (inactive) and the GI50 (KM-20L2) was 43.2 µM (inactive).
With COc1ccc(CNc2nc(NC3CCCCC3)nc(NC3CCCCC3)n2)cc1 the GI50 (BT-549) was 8.53 µM (inactive).
In the case of COc1ccc2c3ccc4c(c3n(C)c2c1)C(=O)c1ccccc1C4=O, the GI50 (HOP-18) was > 100 µM (inactive), the GI50 (LXFL 529) was 78 µM (inactive) and the GI50 (DMS-273) was > 100 µM (inactive). The GI50 (KM-20L2) was 39.8 µM (inactive) and the GI50 (M19-MEL) was > 100 µM (inactive).
CC(C)(C)OC(=O)NCCCCCCC(=O)Cc1ccccc1 was tested, and the GI50 (BT-549) was > 100 µM (inactive) and the GI50 (MDA-N) was > 100 µM (inactive).
For COC(=O)C1=C(C)NC2(C)OC(C)(O)C(C(C)=O)C12C(C)=O (stereo unspecified), the GI50 (BT-549) was 66.5 µM (inactive) and the GI50 (MDA-N) was > 100 µM (inactive).
In the case of C[C@]12CC[C@H](O)CC1=CC[C@@H]1C2CC[C@]2(C)NC(=O)C(C#N)CC12 (stereo partly specified), the GI50 (LXFL 529) was > 100 µM (inactive), the GI50 (DMS-273) was > 100 µM (inactive) and the GI50 (KM-20L2) was > 100 µM (inactive). The GI50 (XF498) was > 100 µM (inactive) and the GI50 (M19-MEL) was > 100 µM (inactive).
With C[N+]12C=CC=C1C(N1CCCC1)c1scc(-c3ccccc3)c12 (stereo unspecified) the GI50 (BT-549) was 4.25 µM (inactive) and the GI50 (MDA-N) was 18.8 µM (inactive).
With O=C1/C(=C/c2ccc(Cl)cc2)NC(=S)N1CN1CCCCC1 the GI50 (MDA-N) was 63 µM (inactive).
